This note sets out measurements from patent US20240262795A1, “PYRAZINE COMPOUNDS AS INHIBITORS OF FLT3” (Biomea Fusion, Inc., priority 2021, published 2024).

What all share (format): cell-based, human
One assay deals with K-562. Kind of assay: Proliferation inhibition, CellTiter-Glo, K-562. The settings on record: Homo sapiens, K562, 96 h; K-562 cells, IC50 (4 days), CellTiter-Glo; read-out: K-562 IC50. An excerpt:
(§1) The proliferation inhibitory effect was investigated in human AML cell lines MOLM-13 (AddexBio: C0003003) and MV-4-11 (ATCC: CRL-9591), and CML cell line […] (ATCC: CRL-3343). Molm-13 is heterozygous for FLT3-ITD mutation, while MV4-11 is homozygous for FLT3-ITD (Quentmeier H, et al., Leukemia. 17(1):120-4). […] Cells were maintained in RPMI-1640 medium (ThermoFisher catalog no. 61870036) supplemented with 10% of Heat Inactivated FBS (ThermoFisher catalog no. A31605) and 1% Pen-Strep (ThermoFisher catalog no. 10378016) and cultured at 37° C. in a humidified incubator with 5% CO2. Cell lines were grown by […], and the cells were maintained in a range 70%-80% confluency.
(§2) ATP is present in all metabolically active cells and is considered as a marker for cell viability and proliferation. Metabolic cell activity was determined using the CellTiter-Glo kit (Promega catalog no. G7572), an ATP monitoring system based on the production of luminescence by the reaction of ATP with added UltraGlo® recombinant luciferase (Kawano et al., 2016, PLOS One, 8; 11(7):e0158888), according to the supplier's experimental recommendations. The assay was based on a 96 well plate format.
(§3) Test compounds were dissolved at 10 mM in DMSO (Sigma catalog no. D8418; purity≥99.9%) and stored at −20° C. Eight concentrations of test compound were assessed in duplicate in an individual test occasion in parallel in the selected cell lines. Gilteratinib and FF-10101 were used as reference compounds and tested in duplicate at eight concentrations. 100% of proliferation is represented by the untreated cells (0.2% DMSO).
(§4) On the day of the experiment, cells were quantified with the cell viability analyzer NucleoCounter (Chemometec NC-200) and diluted with fresh medium to obtain the cell density of about 10,000 cells per 200 μL medium. 200 μL of cell suspension were added into wells in the 96 well plate.
(§5) After 2 hours from seeding cells, compounds at desired concentrations were added using a D300e compound dispenser (Life Sciences Tecan D300) with shaking between each compound dispensed. Assay plates were incubated at 37° C. in a humidified incubator with 5% CO2.
(§6) On day 4 (˜96 hrs after compound addition) assay plates were equilibrated at room temperature for approximately 15 min, and then 40 μL/well of the Promega CellTiterGlo® reagent was added. Contents were mixed for 5 min on an orbital shaker to promote cell lysis, and then incubated at room temperature for an additional 10 min in the dark to stabilize the luminescent signal. Luminescence was read by using a GloMlax GM300 plate reader (Promega) using the luminescence for 96 well plate standard protocol.
(§7) Results were analyzed by GraphPad (Prism) and IC50 values were calculated by non-linear regression using four parameter-logistic equation.

A further assay has as its system MOLM-13. Kind of assay: Proliferation inhibition, CellTiter-Glo, MOLM-13. The settings on record: Homo sapiens, 96 h; MOLM-13 cells, IC50 (4 days), CellTiter-Glo; read-out: MOLM-13 IC50.
Source text: as §1, §2, §3, §4, §5, §6, §7
(In general: Cellular ATP, detected with luciferase, serves as a proxy for viable cell number.)

In another assay the test system is MV-4-11. Kind of assay: Proliferation inhibition, CellTiter-Glo, MV-4-11. The settings on record: Homo sapiens, MV4-11, 96 h; MV-4:11 cells, IC50 (4 days), CellTiter-Glo; read-out: MV-4:11 IC50.
Source text: as §1, §2, §3, §4, §5, §6, §7

Usually IC50 stands for the concentration needed to halve the response being measured. For `C=CC(=O)N(C)[C@@H](C)C(=O)NCCc1cccc(Nc2nc(C3CC3)c(C)nc2C(N)=O)c1` [Compound 222, 5-cyclopropyl-6-methyl-3-[3-[2-[[(2S)-2-[methyl(prop-2-enoyl)amino]propanoyl]amino]ethyl]anilino]pyrazine-2-carboxamide], the IC50 in the assay with K-562 was above 0.5 µM; in the assay on MOLM-13 it was 0.01 to 0.1 µM; with MV-4-11, 0.01 to 0.1 µM.

As for `CCc1nc(C(N)=O)c(Nc2cccc(CCNC(=O)C3(N(C)C(=O)/C=C/CN(C)C)CC3)c2)nc1C` [Compound 223, 3-[3-[2-[[1-[[(E)-4-(dimethylamino)but-2-enoyl]-methyl-amino]cyclopropanecarbonyl]amino]ethyl]anilino]-6-ethyl-5-methyl-pyrazine-2-carboxamide], the IC50 in the assay on K-562 was above 0.5 µM; in the assay on MOLM-13, 0.01 to 0.1 µM; with MV-4-11, 0.001 to 0.01 µM.

`CCc1nc(C(N)=O)c(Nc2cccc(CCNC(=O)[C@H](C)N(C)C(=O)/C=C/CNC)c2)nc1C1CC1` [Compound 224, (S,E)-5-cyclopropyl-6-ethyl-3-((3-(2-(2-(N-methyl-4-(methylamino)but-2-enamido)propanamido)ethyl)phenyl)amino)pyrazine-2-carboxamide]: the IC50 was above 0.5 µM in the assay on K-562, 0.001 to 0.01 µM with MOLM-13 and below 0.001 µM in the assay with MV-4-11.

As for `C=CC(=O)N(C)[C@@H](C)C(=O)NCCc1cccc(Nc2nc(N(C)CC)c(C)nc2C(N)=O)c1` [Compound 225, 5-[ethyl(methyl)amino]-6-methyl-3-[3-[2-[[(2S)-2-[methyl(prop-2-enoyl)amino]propanoyl]amino]ethyl]anilino]pyrazine-2-carboxamide], the IC50 was above 0.5 µM in the assay with K-562, 0.01 to 0.1 µM in the assay with MOLM-13 and 0.001 to 0.01 µM in the assay on MV-4-11.

Regarding `CCc1nc(C(N)=O)c(Nc2cccc(CCNC(=O)CN(C)C(=O)/C=C/CN(C)C)c2)nc1C` [Compound 226, (E)-3-((3-(2-(2-(4-(dimethylamino)-N-methylbut-2-enamido)acetamido)ethyl)phenyl)amino)-6-ethyl-5-methylpyrazine-2-carboxamide], the values for the IC50 in the assay on K-562, in the assay with MOLM-13 and in the assay on MV-4-11 were above 0.5 µM, 0.001 to 0.01 µM and below 0.001 µM, respectively.

For the compound `CCc1nc(C(N)=O)c(Nc2cccc(CCNC(=O)[C@H](C)N(C)C(=O)/C=C/CNC)c2)nc1C` [Compound 227, (S,E)-6-ethyl-5-methyl-3-((3-(2-(2-(N-methyl-4-(methylamino)but-2-enamido)propanamido)ethyl)phenyl)amino)pyrazine-2-carboxamide], the IC50 is above 0.5 µM in the assay on K-562, 0.001 to 0.01 µM with MOLM-13 and 0.001 to 0.01 µM in the assay with MV-4-11.

Take `Cc1nc(C(N)=O)c(Nc2cccc(CCNC(=O)[C@H](C)N(C)C(=O)/C=C/CN(C)C)c2)nc1C1CC1` [Compound 228, (S,E)-5-cyclopropyl-3-((3-(2-(2-(4-(dimethylamino)-N-methylbut-2-enamido)propanamido)ethyl)phenyl)amino)-6-methylpyrazine-2-carboxamide]: the values for the IC50 with K-562, in the assay on MOLM-13 and with MV-4-11 were above 0.5 µM, 0.001 to 0.01 µM and 0.001 to 0.01 µM, respectively.

Regarding `Cc1nc(C(N)=O)c(Nc2cccc(CCNC(=O)[C@H](C)N(C)C(=O)/C=C/CN3CCC3)c2)nc1N(C)C` [Compound 230, (S,E)-3-((3-(2-(2-(4-(azetidin-1-yl)-N-methylbut-2-enamido)propanamido)ethyl)phenyl)amino)-5-(dimethylamino)-6-methylpyrazine-2-carboxamide], the IC50 in the assay on K-562 was above 0.5 µM; with MOLM-13, 0.001 to 0.01 µM; with MV-4-11, below 0.001 µM.

With `C=CC(=O)N(C)[C@@H](C)C(=O)NCCc1cccc(Nc2nc(N(C)C(C)C)c(C)nc2C(N)=O)c1` [Compound 231, 5-[isopropyl(methyl)amino]-6-methyl-3-[3-[2-[[(2S)-2-[methyl(prop-2-enoyl)amino]propanoyl]amino]ethyl]anilino]pyrazine-2-carboxamide], the IC50 in the assay on K-562 is above 0.5 µM; in the assay with MOLM-13 it was 0.01 to 0.1 µM; in the assay with MV-4-11, 0.001 to 0.01 µM.

As to `Cc1nc(C(N)=O)c(Nc2cccc(CCNC(=O)[C@H](C)N(C)C(=O)/C=C/CN(C)C)c2)nc1N(C)C` [Compound 233, (S,E)-5-(dimethylamino)-3-((3-(2-(2-(4-(dimethylamino)-N-methylbut-2-enamido)propanamido)ethyl)phenyl)amino)-6-methylpyrazine-2-carboxamide], the IC50 in the assay on K-562 was above 0.5 µM; with MOLM-13 it was 0.001 to 0.01 µM; in the assay on MV-4-11, below 0.001 µM.

`CCc1nc(C(N)=O)c(Nc2cccc(CCNC(=O)[C@@H](C)N(C)C(=O)/C=C/CN(C)C)c2)nc1C` [Compound 234, 3-[3-[2-[[(2R)-2-[[(E)-4-(dimethylamino)but-2-enoyl]-methyl-amino]propanoyl]amino]ethyl]anilino]-6-ethyl-5-methyl-pyrazine-2-carboxamide]: the figures for the IC50 in the assay on K-562, in the assay with MOLM-13 and in the assay on MV-4-11 were above 0.5 µM, above 0.5 µM and 0.01 to 0.1 µM, respectively.

Turning to `C=CC(=O)N(C)[C@H](C)C(=O)NCCc1cccc(Nc2nc(C3CC3)c(CC)nc2C(N)=O)c1` [Compound 236, 5-cyclopropyl-6-ethyl-3-[3-[2-[[(2R)-2-[methyl(prop-2-enoyl)amino]propanoyl]amino]ethyl]anilino]pyrazine-2-carboxamide], the IC50 with K-562 is above 0.5 µM; with MOLM-13, 0.01 to 0.1 µM; in the assay with MV-4-11, 0.01 to 0.1 µM.

In the case of `[2H]C([2H])([2H])N(C(=O)C=C)[C@@H](C)C(=O)NCCc1cccc(Nc2nc(C3CC3)c(CC)nc2C(N)=O)c1` [Compound 237, 5-cyclopropyl-6-ethyl-3-[3-[2-[[(2S)-2-[prop-2-enoyl(trideuteriomethyl)amino]propanoyl]amino]ethyl]anilino]pyrazine-2-carboxamide], the results for the IC50 in the assay with K-562, in the assay with MOLM-13 and in the assay with MV-4-11 were above 0.5 µM, 0.01 to 0.1 µM and 0.001 to 0.01 µM, respectively.

Turning to `C=CC(=O)N(C)[C@@H](C)C(=O)NCCc1cccc(Nc2nc(C)c(C)nc2C(N)=O)c1` [Compound 238, 5,6-dimethyl-3-[3-[2-[[(2S)-2-[methyl(prop-2-enoyl)amino]propanoyl]amino]ethyl]anilino]pyrazine-2-carboxamide], the IC50 in the assay with K-562, with MOLM-13 and in the assay with MV-4-11 was above 0.5 µM throughout.

As to `CCc1nc(C(N)=O)c(Nc2cccc(CCNC(=O)[C@H](C)N(C)C(=O)/C=C/CN3CC(F)C3)c2)nc1C` [Compound 240, 6-ethyl-3-[3-[2-[[(2S)-2-[[(E)-4-(3-fluoroazetidin-1-yl)but-2-enoyl]-methyl-amino]propanoyl]amino]ethyl]anilino]-5-methyl-pyrazine-2-carboxamide], the results for the IC50 in the assay on K-562, with MOLM-13 and with MV-4-11 were above 0.5 µM, above 0.5 µM and 0.01 to 0.1 µM, respectively.

On to `Cc1nc(C(N)=O)c(Nc2cccc(CCNC(=O)[C@H](C)N(C)C(=O)/C=C/CN3CCC3)c2)nc1C1CC1` [Compound 242, (S,E)-3-((3-(2-(2-(4-(azetidin-1-yl)-N-methylbut-2-enamido)propanamido)ethyl)phenyl)amino)-5-cyclopropyl-6-methylpyrazine-2-carboxamide], for which the results for the IC50 in the assay on K-562, in the assay on MOLM-13 and in the assay with MV-4-11 were above 0.5 µM, 0.001 to 0.01 µM and 0.001 to 0.01 µM, respectively.

For `CCc1nc(Nc2cccc(CCNC(=O)[C@H](C)N(C)C(=O)/C=C/CN(C)C)c2)c(C(N)=O)nc1CC` [Compound 243, (S,E)-3-((3-(2-(2-(4-(dimethylamino)-N-methylbut-2-enamido)propanamido)ethyl)phenyl)amino)-5,6-diethylpyrazine-2-carboxamide], the IC50 with K-562 is above 0.5 µM; in the assay on MOLM-13, 0.001 to 0.01 µM; in the assay with MV-4-11 it was below 0.001 µM.

Take `CCc1nc(C(N)=O)c(Nc2cccc(CCNC(=O)[C@H](C)N(C)C(=O)C#CCN(C)C)c2)nc1C` [Compound 244, (S)-3-((3-(2-(2-(4-(dimethylamino)-N-methylbut-2-ynamido)propanamido)ethyl)phenyl)amino)-6-ethyl-5-methylpyrazine-2-carboxamide]: the IC50 is above 0.5 µM with K-562, 0.001 to 0.01 µM in the assay with MOLM-13 and below 0.001 µM with MV-4-11.
